According to patent US5308843A, “Method of inhibiting mammalian topoisomerase II and malignant cell growth in mammals, with substituted (S)-3-methyl-7-oxo-2,3-dihydro-7H-pyrido[1,2,3-de][1,4 ]-benzoxazine(and-benzothiazine)-6-carboxylic acids” (Sterling Drug Inc., priority 1990, dated 1994):
“Also recorded” adds a separate entry of the source.

Legend:
[1] = system: mammary ductal adenocarcinoma No. 16/C; assay: In vivo antitumor assay, mammary ductal adenocarcinoma No. 16/C (SC); design: species or system mice
Source text: (§1) In vivo Antitumor Assay Procedure
(§2) Mice: Inbred: C3H/He; and Hybrids: B6D2F1 (C57BL/6 females×DBA/2 males), CD2F1 (Balb/c females×DBA/2 males) and B6C3F1 (C57BL/6×C3H) were bred at Wayne State University from strains obtained from the Frederick Cancer Research Facility, Frederick, Md. or from commercial suppliers.
(§3) Tumors: Murine Tumors: P388 leukemia and the following transplantable solid tumors of mice were used for in vivo testing: B16 melanoma, pancreatic ductal adenocarcinoma No. 03, colon adenocarcinoma No. 38 and mammary ductal adenocarcinoma No. 16/C. All tumors are in the Developmental Therapeutics Program frozen tumor repository, maintained by the Biological Testing Branch, Frederick, Md. Each has a detailed description, code identification number, and list of references at the National Tumor Repository. Tumors were maintained in the mouse strain of origin and were transplanted in the appropriate F1 hybrid (or the strain of origin) for therapy trials. The mice were supplied food and water ad libitum.
(§4) Chemotherapy: For pancreatic ductal adenocarcinoma No. 03, colon adenocarcinoma No. 38, and mammary ductal adenocarcinoma No. 16, the following methods were used to help ensure a more uniform tumor burden per mouse (thus reducing the requirement for greater numbers of mice per group), bilateral tumor implants were used. The animals necessary to begin an experiment were pooled, implanted bilaterally s.c. on day zero with 30-60-mg tumor fragments using a 12-gauge trocar, and again pooled before randomization to the various treatment and control groups. Chemotherapy was started within three days after tumor implantation while the number of cells per mouse was relatively small (1×10^7 -1×10^8 cells).
(§5) End Points for Assessing Antitumor Activity: Quantitative end points used to assess antitumor activity included % Increased Life Span (% ILS), Tumor Cell Kill (Log10 kill), and Tumor Growth Inhibition (T/C). Long Term Survivors (45 or 60 day) were excluded from calculations of % ILS and Tumor Cell Kill.
(§6) Endpoints were calculated as follows: [formula] where Dt is the median day of death for treated and Dc is the median day of death for control groups.
(§7) T/C Value: Tumors were measured with a caliper once or twice weekly (as needed) until either tumors exceeded 1600 mg or cure was assured. Tumor weights were estimated from two-dimensional measurements: Tumor Weight (mg)=(a×b^2)/2, where a and b are the tumor length and width (mm), respectively. Measurements were carried out simultaneously in both the treatment and control groups. When the control group tumors reached approximately 750-1500 mg in size (median of group), the median tumor weight of each group was determined (including zeros). The T/C value in percent is an indication of antitumor effectiveness. […]. […]

[2] = as above; design: species or system mice; details: mouse, in vivo; Mam16/C (SC); drug SC; QD1-4; read-out: Maximum Tolerated Total Dose
Source text: as §1, §2, §3, §4, §5, §6, §7

[3] = system: pancreatic ductal adenocarcinoma No. 03; assay: In vivo antitumor assay, pancreatic ductal adenocarcinoma No. 03 (Panc03, SC); design: species or system mice
Source text: as §1, §2, §3, §4, §5, §6, §7

[4] = as above; design: species or system mice; details: mouse, in vivo; Panc03 (SC); drug SC; QD3-9; read-out: Maximum Tolerated Total Dose
Source text: as §1, §2, §3, §4, §5, §6, §7

[5] = Toxicity observations in mice of the in vivo antitumor trials
Source text: Dose limiting toxicity appeared to be leukopenia, based on small spleen sizes in necropsy of mice dying at lethal dosage levels. […] Host recovery was rapid, with mice regaining their lost body weight within two to five days post nadir (at the highest non-toxic dosage levels).

B16 melanoma = assay: In vivo antitumor assay, B16 melanoma (IP); design: species or system mice
Source text: as §1, §2, §3
(§8) For P388 leukemia and B16 melanoma studies the tumor cells were implanted IP on day zero and treatment was started on day one (also IP). Titered controls were also included to facilitate the calculation of tumor cell kill.
as §5, §6
(§9) The log10 cell kill was calculated from the following formula: [formula] where T-C is the tumor difference in the median day of death between the treated (T) and the control (C) groups and Td is the tumor doubling time (in days), the latter estimated from the best fit straight line from a log-linear growth plot of the control-group tumors in exponential growth. The conversion of the T-C values to log10 cell kill is possible because the Td for tumors regrowing post-treatment approximated the Td values of the tumors in untreated control mice.

[6] = In vivo antitumor assay, B16 melanoma (IP); design: species or system mice; details: mouse, in vivo; B16(IP) 0.5 ml 10% brie; drug IP; QD1,5,9; read-out: Maximum Tolerated Total Dose
Source text: as §1, §2, §3, §8, §5, §6, §9

Cc1cc(-c2c(F)cc3c(=O)c(C(=O)O)cn4c3c2SC[C@@H]4C)cc(C)n1 [Example 5, (S)-10-(2,6-Dimethyl-4-pyridinyl)-9-fluoro-3-methyl-7-oxo-2,3-dihydro-7H-pyrido[1,2,3-de][1,4]benzothiazine-6-carboxylic acid]
Long Term Survivors ([1]; Mam16/C (SC), drug SC, QD1-4, 263 mg/kg total): 0/5
% T/C ([1]; Mam16/C (SC), drug SC, QD1-4, at maximum tolerated total dose 263 mg/kg): 15%
antitumor activity (in words) ([1]; Mammary Adenocarcinoma No. 16/C): clearly active
MTD [2]: 263 mg/kg
Long Term Survivors ([3]; Panc03 (SC), drug SC, QD3-9, 781 mg/kg total): 0/5
% T/C ([3]; Panc03 (SC), drug SC, QD3-9, at maximum tolerated total dose 781 mg/kg): 17%
antitumor activity (in words) ([3]; Pancreatic Ductal Adenocarcinoma 03): clearly active
MTD [4]: 781 mg/kg
Dose limiting toxicity ([5]; based on small spleen sizes in necropsy of mice dying at lethal dosage levels): leukopenia
host recovery (in words) ([5]; mouse, in vivo): rapid
host recovery: time to regain lost body weight post nadir ([5]; mouse, in vivo): two to five
tolerability ([5]; mouse, in vivo): well tolerated with no long delayed toxicity problems
% ILS (B16 melanoma; B16(IP), drug IP, QD1,5,9, 1500 mg/kg total): 66%
Long Term Survivors (B16 melanoma; B16(IP), drug IP, QD1,5,9, 1500 mg/kg total, footnote 5: Day 60, tumor evident): 1/6
antitumor activity (in words) (B16 melanoma; B16 melanoma IP): Day 60; tumor evident; also recorded: good activity
log10 tumor cell kill (B16 melanoma; B16 melanoma IP): 2.0 log10
MTD [6]: 1500 mg/kg
